Laboratory results as given in PubChem BioAssay (NCI).
Where “and” joins values, the source holds several entries; their conditions need not be identical. Identical values can stand only once.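 Following 48 hours of exposure in 96-well plates, responses at five concentrations were used to interpolate endpoints linearly. The concentration for 50% growth inhibition is given as GI50. The concentration for full growth arrest is given as TGI.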

Experiments:
Assay in all cases: inhibition of tumour cell growth, NCI panel, 48 h
OVCAR-3 ovarian = test system: OVCAR-3 ovarian
UO-31 renal = test system: UO-31 renal
DU-145 prostate = test system: DU-145 prostate
ACHN renal = test system: ACHN renal
MALME-3M melanoma = test system: MALME-3M melanoma
HCT-15 colon = test system: HCT-15 colon
HT29 colon = test system: HT29 colon
MDA-MB-231 breast = test system: MDA-MB-231 breast
NCI-H226 lung = test system: NCI-H226 lung
T-47D breast = test system: T-47D breast

Compound | GI50 (OVCAR-3 ovarian) [µM] | TGI (OVCAR-3 ovarian) [µM] | GI50 (UO-31 renal) [µM] | TGI (UO-31 renal) [µM] | GI50 (DU-145 prostate) [µM] | TGI (DU-145 prostate) [µM] | GI50 (ACHN renal) [µM] | TGI (ACHN renal) [µM] | GI50 (MALME-3M melanoma) [µM] | TGI (MALME-3M melanoma) | GI50 (HCT-15 colon) [µM] | TGI (HCT-15 colon) [µM] | GI50 (HT29 colon) [µM] | TGI (HT29 colon) [µM] | GI50 (MDA-MB-231 breast) [µM] | TGI (MDA-MB-231 breast) [µM] | GI50 (NCI-H226 lung) [µM] | TGI (NCI-H226 lung) [µM] | GI50 (T-47D breast) [µM] | TGI (T-47D breast) [µM]
CC(=O)O[C@H]1[C@@H]2OC(=O)C(CSc3ccccc3)[C@@H]2C[C@H]2O[C@]2(C)CC/C=C(\C)CCC[C@@H]1C (stereo partly drawn) | 1.87 | 4.11 | 1.96 | 5.26 | 2.34 | 5.6 | 1.8 | 3.82 | 4.05 | 19.5 µM | 1.95 | 6.52 | 3.51 | 14.9 | 4.25 | 19.5 | 4.69 | 18 | 2.43 | 12.6
Cc1cc(N2CCOCC2)nc(N(CCCNc2ccnc3cc(Cl)ccc23)Cc2ccco2)n1 | 1.81 | 4.49 | 1.61 | 6.77 | 3.23 | 14.2 | 4.09 | 15.8 | 2.47 | 5.69 µM | 2.37 | 11.6 | 1.83 | 8.57 | 3.2 | 13.4 | 12 | 33.9 | 2.06 | 7.26
COc1cc(C2=N/C(=C/c3cccs3)C(=O)O2)cc(OC)c1OC |  | > 100 |  |  |  | > 100 |  | > 100 |  | > 100 µM |  | > 100 |  | > 100 |  | > 100 |  | > 100 |  | > 100
COC(=O)C12OCC34C(CC5C(C)C6=CC(=O)OC6=CC5(C)C3C(O)C1O)OC(=O)C(O)C24 (stereo not drawn) | 0.282 | 3.61 |  | 61.8 |  |  | 0.486 | 17.1 | 0.0896 | 0.351 µM and 0.665 µM | 0.458 | 12.9 | 1.68 | 0.674 |  |  | 0.0875 |  |  | 
O=C(Nc1cccc(Cl)c1)c1cccc(NC2=C(Cl)C(=O)N(Cc3ccccc3)C2=O)c1 | 24.3 | > 100 | 36.4 | > 100 | 46 | > 100 | 87.4 | > 100 |  |  | 30 | > 100 | 55.7 | > 100 | 4.54 | > 100 | 22.4 | > 100 | > 100 | > 100
O=NNc1ccc(Sc2ccc(NN=O)cn2)nc1 |  | > 100 |  | > 100 |  | > 100 |  | > 100 |  |  |  | > 100 |  | > 100 |  | > 100 |  | > 100 |  | > 100
CC(C)(C)c1ccc(OCCOCCOc2ccc(C(C)(C)C)cc2S(=O)(=O)Nc2ccc([N+](=O)[O-])cc2)c(S(=O)(=O)Nc2ccc([N+](=O)[O-])cc2)c1 |  | > 100 |  | > 100 |  |  |  | > 100 |  | > 100 µM |  | > 100 |  | > 100 |  |  |  | > 100 |  | 
CC(C(N)C(=O)NC(C(=O)O)C1OC(n2ccc(=O)[nH]c2=O)C(O)C1O)C(O)c1ccc(O)cn1 (stereo not drawn) |  | > 100 |  | > 100 |  | > 100 |  | > 100 |  |  |  | > 100 |  | > 100 |  | > 100 |  |  |  | > 100
O=C(CCn1[nH]c(=O)c(Cl)c(Cl)c1=O)NNC(=O)C[n+]1ccccc1 |  | > 100 |  | > 100 |  |  |  | > 100 |  | > 100 µM |  | > 100 |  | > 100 |  |  |  | > 100 |  | 
CC(=O)O[C@H](C[C@H](C(C)C)N(C)C(=O)[C@@H](NC(=O)[C@H]1CCCN1C)C(C)C)c1nc(C(=O)N[C@@H](Cc2ccccc2)C[C@H](C)C(=O)O)c(C)s1 |  |  | 0.011 | > 16.7 | 0.00224 | > 16.7 |  |  |  |  | 0.00772 | > 16.7 | < 0.00167 | > 16.7 | 0.00292 | > 16.7 |  |  |  | 
Nc1n[n+](-c2ccccc2)no1 |  | > 100 |  | > 100 |  |  |  | > 100 |  | > 100 µM |  | > 100 |  | > 100 |  |  |  | > 100 |  | 
COc1ccc2oc(C(=O)O)c3c2c1CCC3CCC(=O)O (stereo not drawn) |  | > 1 |  | > 100 |  |  |  | > 100 |  | > 100 µM |  |  |  | > 100 |  |  |  |  |  | 
CCOC(=O)C#Cc1c(C(=O)OCC)nnn1Cc1ccc([N+](=O)[O-])cc1 |  |  | 1.75 | 3.78 | 3.88 | 14.2 | 1.89 | 3.45 | 1.99 | 4.29 µM | 1.66 | 3.29 |  |  | 3.25 | 9.14 | 1.72 | 3.33 | 2.78 | 7.65
C/C=C(\CCOS(=O)(=O)c1ccc(C)cc1)[Si](C)(C)C |  | > 100 |  | > 100 |  |  |  | > 100 |  | > 100 µM |  | > 100 |  | > 100 |  |  |  |  |  | 
Cc1cccc2c1CCC21OC(=O)c2c1ccc1ccccc21 (stereo not drawn) |  | > 100 |  | > 100 |  |  |  | > 100 |  | 75.5 µM |  | > 100 |  | > 100 |  |  |  | > 100 |  | 
C/C(=N\NC(=S)SCc1ccccc1)c1ccccn1 |  |  |  | 14.2 |  | 16.9 |  | 1.95 |  | 7.4 µM |  | 12.1 |  | 15.6 |  | 4.08 |  | 1.62 |  | > 42.6
CCOC(=O)c1cnc2c(ccc3ncccc32)c1NCCCN(CC)CC |  | > 100 |  | > 100 |  |  |  | > 100 |  | > 100 µM |  | > 100 |  | > 100 |  |  |  | > 100 |  | 
CC(=O)[CH-]C(=O)c1ccccc1.CC(=O)[CH-]C(=O)c1ccccc1.Cc1cc([O-])ccc1Cl.Cc1cc([O-])ccc1Cl.[Ti+4] | 18.9 | 60.6 | 15.5 | 47.4 |  |  | 30.1 | > 100 | 20.9 | 52.8 µM | 25.6 | > 100 | 28.9 | 95.5 |  |  | 20.2 | 69.2 |  | 
CC1=C(O)/C(=C/C(C)CCC/C(C)=C/C=C/C(C)CCCc2ccoc2)OC1=O (stereo not drawn) |  |  |  | > 100 |  |  |  | 50.9 |  | 49.4 µM |  |  |  | > 100 |  |  |  | 68.8 |  | 
N#Cc1c(N)nc(N2CCOCC2)c(C#N)c1-c1ccccn1 | > 100 | > 100 | > 100 | > 100 | > 100 | > 100 | > 100 | > 100 | > 100 | > 100 µM | > 100 | > 100 | > 100 | > 100 |  |  |  | > 100 | 48.4 | > 100
